{"source": "patent US7851443B2", "about": "“Combination comprising combretastatin and anticancer agents” (Aventis Pharma SA, priority 2005, dated 2010)", "key": {"[1]": {"tested_on": "MA13/C murine mammary adenocarcinoma tumor", "experiment": "Antitumor effect on advanced MA13/C murine mammary adenocarcinoma grafted subcutaneously in mice", "assay_type": "in vivo, female C3H/HeN mice", "procedure": "This efficacy can be quantified, for example by the log10 cell kill, which is determined by the following formula: log10 cell kill=T-C (days)/3.32×Td in which T-C represents the delay in tumor growth, which is the average time, in days, taken by the tumors of the treated group (T) to reach a predetermined value (1 g for example) and for the tumors of the control group (C) to reach the same value, and Td represents the time, in days, necessary for the volume of the tumors in the control group to double. During the exponential phase of tumor growth (T. H. Corbett et al., Cancer, 40, 2660.2680 (1977); F. M. Schabel et al., Cancer Drug Development, Part B, Methods in Cancer Research, 17, 3-51, New York, Academic Press Inc. (1979)). A product is considered to be active if the log10 cell kill is greater than or equal to 0.7.\nThe efficacy of the combinations of solid tumors can be determined experimentally in the following way:\n(§1) The animals subjected to the experiment are female C3H/HeN mice which are bilaterally grafted subcutaneously with 30 to 60 mg of a fragment of MA13/C murine mammary adenocarcinoma tumor at day 0. In the case of an early tumor treatment, the implanted animals are distributed randomly in various groups which are or are not (controls) intended to receive the treatment(s). […] Generally, the chemotherapy begins from 3 to 22 days after the graft, according to the type of tumor and the desired tumor size. The animals are observed and weighed every day. A dose which induces a weight loss of 20% or more at the lowest point (average of the group) or a mortality of 10% or more is considered to be toxic. The tumoral activity is evaluated at the highest nontoxic dose.\nThe tumors are measured 2 or 3 times a week until the tumor reaches approximately 2 g or until the animal dies, if this occurs before the tumor reaches 2 g. The animals are autopsied when they are sacrificed.\nThe antitumor activity is determined in accordance with various recorded parameters, such as the dose (mg/kg), the method of administration, the administration time, the toxicity and the log cell kill, which depends on the delay in tumor growth and also on the tumor doubling time."}, "[2]": {"experiment": "Toxicity (mortality, weight loss) in tumor-bearing mice", "assay_type": "in vivo, female C3H/HeN mice", "procedure": "as §1"}, "[3]": {"details": "VEGF Trap SC 10.0 mg/kg per administration, days 21, 25, total dose 20.0 mg/kg"}, "[4]": {"details": "VEGF Trap SC 25.0 mg/kg per administration, days 21, 25, total dose 50.0 mg/kg"}, "[5]": {"details": "VEGF Trap SC 40.0 mg/kg per administration, days 21, 25, total dose 80.0 mg/kg"}, "[6]": {"details": "Formula (IIa) IV 22.3 mg/kg per administration, days 21, 25, total dose 44.6 mg/kg"}, "[7]": {"details": "Formula (IIa) IV 36.0 mg/kg per administration, days 21, 25, total dose 72.0 mg/kg"}, "[8]": {"details": "Formula (IIa) IV 58.0 mg/kg per administration, days 21, 25, total dose 116.0 mg/kg"}, "[9]": {"details": "Formula (IIa) IV 93.5 mg/kg per administration, days 21, 25, total dose 187.0 mg/kg"}}, "data": [{"compound": "VEGF Trap: fusion protein: VEGFR1 signal sequence, Ig domain D2 of VEGFR1, Ig domain D3 of VEGFR2, IgG1 Fc domain", "values": [{"measurement": "Comments", "setting": "[1]; [3]", "value": "Inactive"}, {"measurement": "Log cell kill", "setting": "[1]; [3]", "value": 0.1}, {"measurement": "Regression Complete", "setting": "[1]; [3]", "value": "0/5"}, {"measurement": "Regression Partial", "setting": "[1]; [3]", "value": "0/5"}, {"measurement": "T-C", "setting": "[1]; [3]", "value": 0.4, "unit": "days"}, {"measurement": "Time to reach tumor size of 1000 mg (median)", "setting": "[1]; [3]", "value": 24.2, "unit": "days"}, {"measurement": "Comments", "setting": "[1]; [4]", "value": "Inactive"}, {"measurement": "Log cell kill", "setting": "[1]; [4]", "value": 0.4}, {"measurement": "Regression Complete", "setting": "[1]; [4]", "value": "0/5"}, {"measurement": "Regression Partial", "setting": "[1]; [4]", "value": "0/5"}, {"measurement": "T-C", "setting": "[1]; [4]", "value": 2.8, "unit": "days"}, {"measurement": "Time to reach tumor size of 1000 mg (median)", "setting": "[1]; [4]", "value": 26.6, "unit": "days"}, {"measurement": "Log cell kill", "setting": "[1]; [5]", "value": 0.1}, {"measurement": "Regression Complete", "setting": "[1]; [5]", "value": "0/5"}, {"measurement": "Regression Partial", "setting": "[1]; [5]", "value": "0/5"}, {"measurement": "T-C", "setting": "[1]; [5]", "value": 0.8, "unit": "days"}, {"measurement": "Time to reach tumor size of 1000 mg (median)", "setting": "[1]; [5]", "value": 24.6, "unit": "days"}, {"measurement": "Comments", "setting": "[1]; VEGF Trap SC 40.0 mg/kg per administration, days 21, 25, total dose 80.0 mg/kg (MAD)", "value": "inactive"}, {"measurement": "Average weight loss as % per mouse at the lowest point (day of the lowest point)", "setting": "[2]; [3]", "value": "0.4 (23) %"}, {"measurement": "Mortality related to the agent (day of death)", "setting": "[2]; [3]", "value": "0/5"}, {"measurement": "Average weight loss as % per mouse at the lowest point (day of the lowest point)", "setting": "[2]; [4]", "value": "1.8 (23) %"}, {"measurement": "Mortality related to the agent (day of death)", "setting": "[2]; [4]", "value": "0/5"}, {"measurement": "Average weight loss as % per mouse at the lowest point (day of the lowest point)", "setting": "[2]; [5]", "value": "1.3 (23) %"}, {"measurement": "Mortality related to the agent (day of death)", "setting": "[2]; [5]", "value": "0/5"}]}, {"compound": "COc1ccc(/C=C\\c2cc(OC)c(OC)c(OC)c2)cc1NC(=O)C(N)CO", "note": "(stereo not shown) [Formula (IIa)]", "values": [{"measurement": "Comments", "setting": "[1]; [6]", "value": "Inactive"}, {"measurement": "Log cell kill", "setting": "[1]; [6]", "value": 0.4}, {"measurement": "Regression Complete", "setting": "[1]; [6]", "value": "0/5"}, {"measurement": "Regression Partial", "setting": "[1]; [6]", "value": "0/5"}, {"measurement": "T-C", "setting": "[1]; [6]", "value": 3.4, "unit": "days"}, {"measurement": "Time to reach tumor size of 1000 mg (median)", "setting": "[1]; [6]", "value": 27.2, "unit": "days"}, {"measurement": "Comments", "setting": "[1]; [7]", "value": "Inactive"}, {"measurement": "Log cell kill", "setting": "[1]; [7]", "value": 0.5}, {"measurement": "Regression Complete", "setting": "[1]; [7]", "value": "0/5"}, {"measurement": "Regression Partial", "setting": "[1]; [7]", "value": "0/5"}, {"measurement": "T-C", "setting": "[1]; [7]", "value": 4.1, "unit": "days"}, {"measurement": "Time to reach tumor size of 1000 mg (median)", "setting": "[1]; [7]", "value": 27.9, "unit": "days"}, {"measurement": "Comments", "setting": "[1]; [8]", "value": "inactive"}, {"measurement": "Log cell kill", "setting": "[1]; [8]", "value": 0.6}, {"measurement": "Regression Complete", "setting": "[1]; [8]", "value": "0/5"}, {"measurement": "Regression Partial", "setting": "[1]; [8]", "value": "0/5"}, {"measurement": "T-C", "setting": "[1]; [8]", "value": 5.1, "unit": "days"}, {"measurement": "Time to reach tumor size of 1000 mg (median)", "setting": "[1]; [8]", "value": 28.9, "unit": "days"}, {"measurement": "Average weight loss as % per mouse at the lowest point (day of the lowest point)", "setting": "[2]; [6]", "value": "0.6 (22) %"}, {"measurement": "Mortality related to the agent (day of death)", "setting": "[2]; [6]", "value": "0/5"}, {"measurement": "Average weight loss as % per mouse at the lowest point (day of the lowest point)", "setting": "[2]; [7]", "value": "2.1 (22) %"}, {"measurement": "Mortality related to the agent (day of death)", "setting": "[2]; [7]", "value": "0/5"}, {"measurement": "Average weight loss as % per mouse at the lowest point (day of the lowest point)", "setting": "[2]; [8]", "value": "3.8 (22) %"}, {"measurement": "Comments (dose level)", "setting": "[2]; [8]", "value": "HNTD"}, {"measurement": "Mortality related to the agent (day of death)", "setting": "[2]; [8]", "value": "0/5"}, {"measurement": "Average weight loss as % per mouse at the lowest point (day of the lowest point)", "setting": "[2]; [9]", "value": "7.4 (26) %"}, {"measurement": "Comments", "setting": "[2]; [9]", "value": "Toxic"}, {"measurement": "Mortality related to the agent (day of death)", "setting": "[2]; [9]", "value": "1/5 (23)"}]}]}
